The record followed here is US9567318B2, “Substituted pyrimidine compounds and uses thereof” (Memorial Sloan-Kettering Cancer Center, priority 2009, dated 2017).

Molecules are shown by their SMILES. Entries after “also recorded” stand apart in the source; their conditions may differ.

For assay [1], the system named is HER2, Raf-1, Akt, Hsp70 in SKBr3 cells. The assay is described as follows: Western blotting of Hsp90 onco-client proteins and Hsp70 in SKBr3 cells. The assay is classed as cell-based, human. As to conditions: SKBr3 cells, 24 h. The method, then: FIG. 3. Testing strategy for the discovery of YK5. a, b) SKBr3 cells were treated for 24 h with the indicated concentrations of inhibitors and cells were lysed for western blot (WB) analysis. β-actin was used as loading control. The data are consistent with those obtained from multiple repeat experiments (n≧3). c) The ability of the indicated inhibitors to compete with GM-Cy3B for Hsp90 binding in SKBr3 cell extracts was examined by fluorescence polarization. Values recorded in wells with added inhibitor were normalized to values read in control wells and plotted against the concentration of tested inhibitor. Drugs were assayed in triplicate. All compounds were used as DMSO stocks. Points, mean; bars, s.d. d) Growth inhibition: SKBr3 cells were incubated in triplicate with increasing concentrations of compound and growth over 72 h was assessed. Y-axis values below 0% represent cell death of the starting population. HER2 degradation was analyzed as in panel a), and gels were quantified by densitometry. Recorded values were normalized to control (vehicle only treated cells) and data graphed against YK5 concentration. Error bars represent the s.d. of the mean (n=3).
FIG. 8. […] Points, mean; bars, s.d. Yaxis values below 0% represent cell death of the starting population. c) Streptavidin beads (50 μl) were incubated with the indicated concentrations of YK55, YK56 or D-biotin to immobilize the corresponding compounds on beads. Beads (50 μl) were probed with SKBr3 cell extracts (500 μg), and the precipitated Hsp70 analyzed by western blot and quantified by […]. Results from three independent experiments were graphed to determine the relative binding affinity of YKs. Points, mean; bars, s.d. d) Structure of representative YKs. YK55 and YK56 are the biotinylated derivatives of YK54 and YK57, respectively.
FIG. 9. […] Cells were treated for 24 h with the indicated concentrations of YK149 and YK5. Cells were lysed and proteins analyzed by western blotting. b) Examples of the compounds of the present subject matter inhibit the activity of the oncogenic STAT3 in the triple-negative breast cancer cells MDA-MB-468. Cells were treated for the indicated times with compounds or vehicle and proteins analyzed by western blot. (c) Examples of the compounds of the present subject matter dose-dependently induce apoptosis in the acute myeloid leukemia cells MOLM13. Cells were treated for 24 h with the indicated concentration of compounds and the increase in caspase3,7 activity was measured and compared to only vehicle (DMSO) treated cells. Caspase-3,7 activity was a measure of compound potency in cleaving the caspase substrate Z-DEVD-R110 and releasing rhodamine. The percentage increase in apoptotic cells was calculated by comparing the fluorescence readings obtained from compounds with those obtained from vehicle (DMSO)-treated cells.
Western Blotting. Cells were grown to 60-70% confluence and treated with inhibitor or DMSO vehicle for the indicated times. Protein lysates were prepared in 50 mM Tris pH 7.4, 150 mM NaCl and 1% NP-40 lysis buffer. Protein concentrations were measured using the BCA kit (Pierce) according to the manufacturer's instructions. […]

Assay [2] deals with T1, recombinant human Hsp70 (Homo sapiens, UniProt P0DMV8).
T1 construct: purchased Stressgen
The assay is described as follows: Hsp70 competition assay using YK55 beads, recombinant protein. The assay is classed as binding. Particulars: compared with MRC-5 Hsp70s. How it is done: FIG. 14. YK5 has a higher affinity for tumor Hsp70s and selectively kills cancer cells. (a-c) Cells were treated with the indicated concentrations of inhibitors for the times presented, and metabolically viable cells by Alamar blue uptake as described in Methods (a). Molecular markers of apoptosis (PARP and caspase-3 cleavage) were analyzed in cells treated for 24 h with indicated concentrations of inhibitors, by western blotting (b, c). Morphology of cells treated for 24 h with vehicle or the indicated inhibitors was analyzed by light microscopy (c). (d) Extracts (500 μg) were incubated overnight with beads containing D-biotin (75 μM) or the indicated concentrations of YK55 added to 50 μl streptavidin beads. HS=heat shocked. (e) SKBr3 (200 μg) and MRC-5 (400 μg) extracts and recombinant human Hsp70 (2 μg) were incubated for 3 h with the indicated concentrations with YK5, followed by precipitation of Hsp70 complexes on YK55-beads (50 μM YK55 added to 50 μl streptavidin beads). Data obtained from three independent experiments were graphed (right). Points, mean; bars, s.d.
In a second experiment, the ability of soluble YK5 to compete YK55-binding to normal and cancer cell Hsp70 species were tested (FIG. 14e). […] Interaction of YK5 was even weaker with recombinant human Hsp70 (FIG. 14e).
Hsp70 Competition Assay Using the YK55 Beads. […]

T1 sequence (P0DMV8 whole entry): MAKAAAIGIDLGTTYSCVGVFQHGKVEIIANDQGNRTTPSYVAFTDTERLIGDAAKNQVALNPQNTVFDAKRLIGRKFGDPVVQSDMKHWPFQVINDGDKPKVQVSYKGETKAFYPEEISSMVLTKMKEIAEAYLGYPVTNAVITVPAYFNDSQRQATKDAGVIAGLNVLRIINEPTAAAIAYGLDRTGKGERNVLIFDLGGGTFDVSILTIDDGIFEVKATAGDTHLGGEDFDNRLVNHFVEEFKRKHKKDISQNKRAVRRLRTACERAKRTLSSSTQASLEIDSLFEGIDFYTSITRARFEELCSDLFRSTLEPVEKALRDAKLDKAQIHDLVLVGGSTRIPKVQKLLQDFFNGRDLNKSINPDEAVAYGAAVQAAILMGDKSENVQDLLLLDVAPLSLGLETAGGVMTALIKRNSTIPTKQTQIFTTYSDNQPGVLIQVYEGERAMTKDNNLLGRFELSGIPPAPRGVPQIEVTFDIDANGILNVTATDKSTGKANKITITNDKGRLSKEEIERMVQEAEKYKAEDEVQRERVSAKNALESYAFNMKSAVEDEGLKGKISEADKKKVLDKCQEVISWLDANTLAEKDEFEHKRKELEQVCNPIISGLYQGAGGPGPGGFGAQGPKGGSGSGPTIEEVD

As for `C=CC(=O)Nc1cc(N)nc(Sc2c(OC)nc(N3CCN(C)CC3)nc2OC)n1` [YK5, N-(6-amino-2-(4,6-dimethoxy-2-(4-methylpiperazin-1-yl)pyrimidin-5-ylthio)pyrimidin-4-yl)acrylamide], the “feed-back induction of Hsp70 (heat shock response)” value in assay [1] is given as “undetected”. Besides, in assay [1] (western blot), the “degradation of Hsp90 onco-client proteins (HER2, Raf-1, Akt)” value is “dose-dependently reduce the steady-state levels of HER2 and Raf-1; also recorded: induced the degradation of HER2, Raf-1 and Akt kinases”. The “interaction with recombinant human Hsp70” value in assay [2] was “even weaker”.
